In PubChem BioAssay (NCI):
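Assay format: 96-well plates, 48-hour exposure. TGI is the concentration that stops growth completely.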

Legend:
Test in all cases: growth of human tumour cells (NCI), 48 h
DLD-1 colon = test system: DLD-1 colon
NCI-H460 lung = test system: NCI-H460 lung
MOLT-4 leukemia = test system: MOLT-4 leukemia
UACC-62 melanoma = test system: UACC-62 melanoma
SN12C renal = test system: SN12C renal
SNB-19 CNS = test system: SNB-19 CNS
ACHN renal = test system: ACHN renal
HL-60(TB) leukemia = test system: HL-60(TB) leukemia
DMS 114 small cell lung = test system: DMS 114 small cell lung
U251 CNS = test system: U251 CNS
SNB-78 CNS = test system: SNB-78 CNS
SW-620 colon = test system: SW-620 colon
SK-MEL-5 melanoma = test system: SK-MEL-5 melanoma
SF-268 CNS = test system: SF-268 CNS
TK-10 renal = test system: TK-10 renal
LXFL 529 NSCLC = test system: LXFL 529 NSCLC
CAKI-1 renal = test system: CAKI-1 renal
DMS 273 small cell lung = test system: DMS 273 small cell lung
LOX IMVI melanoma = test system: LOX IMVI melanoma
OVCAR-5 ovarian = test system: OVCAR-5 ovarian
KM12 colon = test system: KM12 colon
XF 498 CNS = test system: XF 498 CNS
HCT-15 colon = test system: HCT-15 colon
COLO 205 colon = test system: COLO 205 colon
SF-539 CNS = test system: SF-539 CNS
OVCAR-8 ovarian = test system: OVCAR-8 ovarian
NCI-H23 lung = test system: NCI-H23 lung
HOP-62 NSCLC = test system: HOP-62 NSCLC
UO-31 renal = test system: UO-31 renal
EKVX NSCLC = test system: EKVX NSCLC
786-0 renal = test system: 786-0 renal
SNB-75 CNS = test system: SNB-75 CNS
OVCAR-4 ovarian = test system: OVCAR-4 ovarian
SK-MEL-2 melanoma = test system: SK-MEL-2 melanoma
HCT-116 colon = test system: HCT-116 colon
CCRF-CEM leukemia = test system: CCRF-CEM leukemia
SK-OV-3 ovarian = test system: SK-OV-3 ovarian
RPMI-8226 leukemia = test system: RPMI-8226 leukemia
SR leukemia = test system: SR leukemia
A549 NSCLC = test system: A549 NSCLC
M19-MEL melanoma = test system: M19-MEL melanoma
UACC-257 melanoma = test system: UACC-257 melanoma
IGROV1 ovarian = test system: IGROV1 ovarian
HOP-92 NSCLC = test system: HOP-92 NSCLC
MALME-3M melanoma = test system: MALME-3M melanoma
K-562 leukemia = test system: K-562 leukemia
M14 melanoma = test system: M14 melanoma
HCC-2998 colon = test system: HCC-2998 colon
OVCAR-3 ovarian = test system: OVCAR-3 ovarian
SK-MEL-28 melanoma = test system: SK-MEL-28 melanoma
KM20L2 colon = test system: KM20L2 colon
NCI-H522 lung = test system: NCI-H522 lung
HOP-18 NSCLC = test system: HOP-18 NSCLC
RXF 393 renal = test system: RXF 393 renal
NCI-H226 lung = test system: NCI-H226 lung
HT29 colon = test system: HT29 colon
SF-295 CNS = test system: SF-295 CNS

Brc1c2nc3ccccc3nc2n2ccc3ccccc3c12
TGI (DLD-1 colon): > 100 µM
TGI (NCI-H460 lung): > 100 µM
TGI (MOLT-4 leukemia): > 100 µM
TGI (UACC-62 melanoma): > 100 µM
TGI (SN12C renal): > 100 µM
TGI (SNB-19 CNS): > 100 µM
TGI (ACHN renal): > 100 µM
TGI (HL-60(TB) leukemia): > 100 µM
TGI (DMS 114 small cell lung): > 100 µM
TGI (U251 CNS): > 100 µM
TGI (SNB-78 CNS): > 100 µM
TGI (SW-620 colon): > 100 µM
TGI (SK-MEL-5 melanoma): > 100 µM
TGI (SF-268 CNS): > 100 µM
TGI (TK-10 renal): > 100 µM
TGI (LXFL 529 NSCLC): > 100 µM
TGI (CAKI-1 renal): > 100 µM
TGI (DMS 273 small cell lung): > 100 µM
TGI (LOX IMVI melanoma): > 100 µM
TGI (OVCAR-5 ovarian): > 100 µM
TGI (KM12 colon): > 100 µM
TGI (XF 498 CNS): > 100 µM
TGI (HCT-15 colon): > 100 µM
TGI (COLO 205 colon): > 100 µM
TGI (SF-539 CNS): > 100 µM
TGI (OVCAR-8 ovarian): > 100 µM
TGI (NCI-H23 lung): > 100 µM
TGI (HOP-62 NSCLC): > 100 µM
TGI (UO-31 renal): > 100 µM
TGI (EKVX NSCLC): > 100 µM
TGI (786-0 renal): > 100 µM
TGI (SNB-75 CNS): > 100 µM
TGI (OVCAR-4 ovarian): > 100 µM
TGI (SK-MEL-2 melanoma): > 100 µM
TGI (HCT-116 colon): > 100 µM
TGI (CCRF-CEM leukemia): > 100 µM
TGI (SK-OV-3 ovarian): > 100 µM
TGI (RPMI-8226 leukemia): > 100 µM
TGI (SR leukemia): > 100 µM
TGI (A549 NSCLC): > 100 µM
TGI (M19-MEL melanoma): > 100 µM
TGI (UACC-257 melanoma): > 100 µM
TGI (IGROV1 ovarian): > 100 µM
TGI (HOP-92 NSCLC): > 100 µM
TGI (MALME-3M melanoma): > 100 µM
TGI (K-562 leukemia): > 100 µM
TGI (M14 melanoma): > 100 µM
TGI (HCC-2998 colon): > 100 µM
TGI (OVCAR-3 ovarian): > 100 µM
TGI (SK-MEL-28 melanoma): > 100 µM
TGI (KM20L2 colon): > 100 µM
TGI (NCI-H522 lung): > 100 µM

O=C(NC12CC3CC(CC(C3)C1)C2)C(=O)c1c[nH]c2ccc(Br)cc12
TGI (DLD-1 colon): 89 µM
TGI (NCI-H460 lung): 27 µM
TGI (MOLT-4 leukemia): 44.2 µM
TGI (UACC-62 melanoma): > 100 µM
TGI (SN12C renal): 61.2 µM
TGI (SNB-19 CNS): 95.6 µM
TGI (ACHN renal): > 100 µM
TGI (HOP-18 NSCLC): 44.1 µM
TGI (HL-60(TB) leukemia): > 100 µM
TGI (DMS 114 small cell lung): > 100 µM
TGI (U251 CNS): 49.2 µM
TGI (RXF 393 renal): 6.39 µM
TGI (SNB-78 CNS): > 100 µM
TGI (NCI-H226 lung): 41.8 µM
TGI (SW-620 colon): > 100 µM
TGI (SK-MEL-5 melanoma): > 100 µM
TGI (SF-268 CNS): 34.2 µM
TGI (TK-10 renal): 92.6 µM
TGI (LXFL 529 NSCLC): 37.3 µM
TGI (CAKI-1 renal): > 100 µM
TGI (DMS 273 small cell lung): 17.6 µM
TGI (LOX IMVI melanoma): 18.4 µM
TGI (OVCAR-5 ovarian): > 100 µM
TGI (HT29 colon): 14.4 µM
TGI (KM12 colon): 41.7 µM
TGI (HCT-15 colon): > 100 µM
TGI (COLO 205 colon): 45.1 µM
TGI (SF-539 CNS): 51.3 µM
TGI (OVCAR-8 ovarian): 87.3 µM
TGI (NCI-H23 lung): > 100 µM
TGI (UO-31 renal): > 100 µM
TGI (EKVX NSCLC): > 100 µM
TGI (786-0 renal): 20.5 µM
TGI (SNB-75 CNS): 28.2 µM
TGI (OVCAR-4 ovarian): 35.5 µM
TGI (SK-MEL-2 melanoma): > 100 µM
TGI (HCT-116 colon): 45.7 µM
TGI (SF-295 CNS): 19.8 µM
TGI (CCRF-CEM leukemia): > 100 µM
TGI (SK-OV-3 ovarian): 60.8 µM
TGI (RPMI-8226 leukemia): > 100 µM
TGI (SR leukemia): 29.6 µM
TGI (A549 NSCLC): 42.4 µM
TGI (UACC-257 melanoma): > 100 µM
TGI (IGROV1 ovarian): > 100 µM
TGI (HOP-92 NSCLC): 48.1 µM
TGI (MALME-3M melanoma): 68.6 µM
TGI (K-562 leukemia): 47.2 µM
TGI (M14 melanoma): 31.4 µM
TGI (HCC-2998 colon): > 100 µM
TGI (OVCAR-3 ovarian): 38.6 µM
TGI (SK-MEL-28 melanoma): > 100 µM
TGI (KM20L2 colon): > 100 µM
TGI (NCI-H522 lung): > 100 µM
